Test results as given in the supplement of paper PMC11451515.

Test system: SEM cells
Assay: cell viability relative to DMSO control; higher = less cytotoxic
Settings: 48 h
Outline: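 Viability was expressed as a per-plate percentage of DMSO wells, with cell-free wells as background. Leukemia cells (NOMO1 or SEM at 500 cells/well, P12-Ichikawa at 1000 cells/well) were adapted for at least four passages in each medium and seeded in 1536-well plates (5 μl). Library compounds in DMSO were pin-dosed over an 11-point threefold series from 47 μM to 0.79 nM, and CellTiter-Glo One luminescence was read after 48 h at 37°C.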

[1] = HPLM + 10% dialyzed FBS, 0.000781 µM
[2] = HPLM + 10% dialyzed FBS, 0.00234 µM
[3] = HPLM + 10% dialyzed FBS, 0.00702 µM
[4] = HPLM + 10% dialyzed FBS, 0.0211 µM
[5] = HPLM + 10% dialyzed FBS, 0.0632 µM
[6] = HPLM + 10% dialyzed FBS, 0.19 µM
[7] = HPLM + 10% dialyzed FBS, 0.569 µM
[8] = HPLM + 10% dialyzed FBS, 1.71 µM
[9] = HPLM + 10% dialyzed FBS, 5.12 µM
[10] = HPLM + 10% dialyzed FBS, 15.4 µM
[11] = HPLM + 10% dialyzed FBS, 46.1 µM
[12] = RPMI 5 mM glucose + 10% FBS, 0.000781 µM
[13] = RPMI 5 mM glucose + 10% FBS, 0.00234 µM
[14] = RPMI 5 mM glucose + 10% FBS, 0.00702 µM
[15] = RPMI 5 mM glucose + 10% FBS, 0.0211 µM
[16] = RPMI 5 mM glucose + 10% FBS, 0.0632 µM
[17] = RPMI 5 mM glucose + 10% FBS, 0.19 µM
[18] = RPMI 5 mM glucose + 10% FBS, 0.569 µM
[19] = RPMI 5 mM glucose + 10% FBS, 1.71 µM
[20] = RPMI 5 mM glucose + 10% FBS, 5.12 µM
[21] = RPMI 5 mM glucose + 10% FBS, 15.4 µM
[22] = RPMI 5 mM glucose + 10% FBS, 46.1 µM
[23] = RPMI 5 mM glucose + 10% dialyzed FBS, 0.000781 µM
[24] = RPMI 5 mM glucose + 10% dialyzed FBS, 0.00234 µM
[25] = RPMI 5 mM glucose + 10% dialyzed FBS, 0.00702 µM
[26] = RPMI 5 mM glucose + 10% dialyzed FBS, 0.0211 µM
[27] = RPMI 5 mM glucose + 10% dialyzed FBS, 0.0632 µM
[28] = RPMI 5 mM glucose + 10% dialyzed FBS, 0.19 µM
[29] = RPMI 5 mM glucose + 10% dialyzed FBS, 0.569 µM
[30] = RPMI 5 mM glucose + 10% dialyzed FBS, 1.71 µM
[31] = RPMI 5 mM glucose + 10% dialyzed FBS, 5.12 µM
[32] = RPMI 5 mM glucose + 10% dialyzed FBS, 15.4 µM
[33] = RPMI 5 mM glucose + 10% dialyzed FBS, 46.1 µM

Row | SMILES | cell viability [1] [%] | cell viability [2] [%] | cell viability [3] [%] | cell viability [4] [%] | cell viability [5] [%] | cell viability [6] [%] | cell viability [7] [%] | cell viability [8] [%] | cell viability [9] [%] | cell viability [10] [%] | cell viability [11] [%] | cell viability [12] [%] | cell viability [13] [%] | cell viability [14] [%] | cell viability [15] [%] | cell viability [16] [%] | cell viability [17] [%] | cell viability [18] [%] | cell viability [19] [%] | cell viability [20] [%] | cell viability [21] [%] | cell viability [22] [%] | cell viability [23] [%] | cell viability [24] [%] | cell viability [25] [%] | cell viability [26] [%] | cell viability [27] [%] | cell viability [28] [%] | cell viability [29] [%] | cell viability [30] [%] | cell viability [31] [%] | cell viability [32] [%] | cell viability [33] [%]
1 | CCC(CC)[C@H](NC(C)=O)[C@@H]1[C@H](O)[C@@H](C(=O)O)C[C@H]1NC(=N)N | 62 | 68 | 77.2 | 87.2 | 76.1 | 32.7 | 57.9 | 79.1 | 78.3 | 66.1 | 87.8 | 89.2 | 84.2 | 84.6 | 80.4 | 103 | 17.8 | 94.4 | 102 | 87.2 | 77.7 | 88.3 | 69.9 | 71.9 | 80.8 | 80.9 | 81.8 | 56.7 | 50.9 | 95.9 | 114 | 71.9 | 68.6
2 | CC1=C(C)C2=C(S1)[N]3C(=NN=C3[C@H](CC(=O)OC(C)(C)C)/N=C2/C4=CC=C(Cl)C=C4)C | 98.5 | 115 | 107 | 105 | 104 | 43.2 | 11.3 | 17.7 | 6.74 | 4.33 | 1.71 | 100 | 108 | 106 | 102 | 103 | 67.7 | 13.7 | 18.7 | 7.27 | 4.94 | 1.39 | 108 | 103 | 102 | 78.7 | 94.7 | 53.9 | 17.5 | 15.8 | 5.05 | 3.64 | 1.14
3 | COc1ccc(Cn2ccc3ccc(C(=O)NO)cc32)cc1 | 102 | 107 | 120 | 120 | 123 | 113 | 127 | 118 | 112 | 114 | 58.5 | 103 | 115 | 122 | 98.1 | 109 | 129 | 127 | 127 | 109 | 109 | 49.3 | 99.6 | 110 | 115 | 76.3 | 114 | 118 | 112 | 110 | 112 | 111 | 38.5
4 | CCCn1c(=O)c2[nH]c(C34CC5CC3C[C@@H](C5)C4)nc2n(CCC)c1=O | 102 | 84.8 | 103 | 109 | 110 | 122 | 115 | 103 | 97.9 | 95.5 | 97.8 | 50.7 | 44.7 | 84.2 | 94.6 | 107 | 101 | 94.1 | 97.2 | 94.8 | 91.1 | 84.4 | 91.6 | 73.2 | 116 | 130 | 117 | 110 | 118 | 109 | 101 | 91.5 | 111
5 | COc1ccc([C@@H]2CNC(=O)C2)cc1OC1CCCC1 | 83.1 | 90.7 | 93.9 | 102 | 103 | 103 | 96.2 | 114 | 114 | 111 | 93.2 | 76.9 | 101 | 92.3 | 93.7 | 100 | 98.6 | 92 | 95.5 | 103 | 95.6 | 98 | 97.1 | 94.3 | 97.9 | 70.6 | 97.4 | 103 | 104 | 106 | 99.6 | 97.6 | 90.9
6 | CN1C(=O)COc2c(C(=O)NC3CN4CCC3CC4)cc(Cl)cc21 (stereo unspecified) | 114 | 112 | 119 | 100 | 116 | 101 | 118 | 101 | 112 | 105 | 101 | 91.7 | 93.7 | 94 | 96.6 | 104 | 95.7 | 109 | 90.6 | 88.5 | 95.5 | 84.9 | 116 | 120 | 125 | 122 | 118 | 126 | 107 | 109 | 97.6 | 131 | 124
7 | CC1(C)CC(=O)c2c(C(F)(F)F)nn(-c3ccc(C(N)=O)c(NC4CCC(OC(=O)CN)CC4)c3)c2C1 (stereo unspecified) | 106 | 104 | 113 | 112 | 114 | 73.2 | 35.7 | 20.2 | 17 | 17.3 | 17.8 | 108 | 99.1 | 105 | 120 | 112 | 73.3 | 37.3 | 23.9 | 18.4 | 15.3 | 16.1 | 94.8 | 95.2 | 100 | 89.2 | 89.5 | 63.3 | 34.5 | 20.5 | 17.3 | 14.3 | 14.7
